Experimental data published in patent US11396518B2, “Solid forms of thiophene derivatives” (TIANJIN HEMAY PHARMACEUTICAL CO., LTD., priority 2018, dated 2022).

Tests used:
Type in all cases: physicochemical
[1] = Dissolution rate in water; conditions: about 25 mg in 900 mL of water, 37° C., rotating speed 100/minute
Protocol: An amorphous solid form of (S)—N-[5-[1-(3-ethoxy-4-methoxyphenyl)-2-(methylsulfonyl)ethyl]-4,6-dioxo-5,6-dihydro-4H-thieno[3,4-c]pyrrole-1-yl]acetamide prepared according to the process in Example 1 was tested.
About 25 mg of the amorphous solid form of (S)—N-[5-[1-(3-ethoxy-4-methoxyphenyl)-2-(methylsulfonyl)ethyl]-4,6-dioxo-5,6-dihydro-4H-thieno[3,4-c]pyrrole-1-yl]acetamide was added to 900 mL of water. The mixture was stirred at a rotating speed of 100/minute at 37° C. for 90 minutes. The supernatant was filtered and diluted. The concentration of the diluted solution (a mg/mL) was determined by ultraviolet spectrophotometer. The dissolution rate was calculated according to the formula 900a/25×100%.

[2] = Grinding stability (XRPD after grinding)
Protocol: An amorphous solid form of (S)—N-[5-[1-(3-ethoxy-4-methoxyphenyl)-2-(methylsulfonyl)ethyl]-4,6-dioxo-5,6-dihydro-4H-thieno[3,4-c]pyrrole-1-yl]acetamide prepared according to the process of Example 1 was ground in a glass mortar for 5 minutes. The ground samples were tested with XRPD.

[3] = Pressure stability (DSC after tablet pressing); conditions: tablet press machine with single punch, tablet diameter 6 mm, hardness 25-30 N
Protocol: An amorphous solid form of (S)—N-[5-[1-(3-ethoxy-4-methoxyphenyl)-2-(methylsulfonyl)ethyl]-4,6-dioxo-5,6-dihydro-4H-thieno[3,4-c]pyrrole-1-yl]acetamide was pressed by tablet press machine with single punch. The diameter of the tablet was 6 mm and the hardness was 25-30 N. DSC test was carried out on pressed powder.

[4] = Hygroscopicity (XRPD after moisture absorption at RH=80%)
Protocol: Hygroscopicity of an amorphous solid form of (S)—N-[5-[1-(3-ethoxy-4-methoxyphenyl)-2-(methylsulfonyl)ethyl]-4,6-dioxo-5,6-dihydro-4H-thieno[3,4-c]pyrrole-1-yl]acetamide was studied. The amorphous solid form of (S)—N-[5-[1-(3-ethoxy-4-methoxyphenyl)-2-(methylsulfonyl)ethyl]-4,6-dioxo-5,6-dihydro-4H-thieno[3,4-c]pyrrole-1-yl]acetamide was placed in a drier containing saturated ammonium chloride solution (RH=80%) until weight was balanced. The crystal form was tested with XRPD.
An amorphous solid form of (S)—N-[5-[1-(3-ethoxy-4-methoxyphenyl)-2-(methylsulfonyl)ethyl]-4,6-dioxo-5,6-dihydro-4H-thieno[3,4-c]pyrrole-1-yl]acetamide prepared according to the process of Example 1 was tested.

- Dissolution Rate (%) ([1]; Time 0 min): 0%
- Dissolution Rate (%) ([1]; Time 15 min): 38.3%
- Dissolution Rate (%) ([1]; Time 30 min): 54.9%
- Dissolution Rate (%) ([1]; Time 45 min): 72.8%
- Dissolution Rate (%) ([1]; Time 60 min): 63.7%
- Crystal Form after Grinding ([2]; Grinding in a glass mortar for 5 minutes): Amorphous
- Grinding stability (conclusion in words) ([2]; ground in a glass mortar for 5 minutes): good grinding stability
- DSC curve of pressed powder compared with FIG. 2 [3]: substantially identical
- Pressure stability (conclusion in words) [3]: good stability
- Moisture absorption stability (conclusion in words) ([4]; RH=80% until weight was balanced): good moisture absorption stability
- Crystal Form after Absorbing Moisture ([4]; drier with saturated ammonium chloride solution (RH=80%) until weight was balanced): Amorphous
Compound: CCOc1cc([C@@H](CS(C)(=O)=O)N2C(=O)c3csc(NC(C)=O)c3C2=O)ccc1OC [amorphous solid form, (S)—N-[5-[1-(3-ethoxy-4-methoxyphenyl)-2-(methylsulfonyl)ethyl]-4,6-dioxo-5,6-dihydro-4H-thieno[3,4-c]pyrrole-1-yl]acetamide]
